Values after ≈ are worked out from the molar mass of the structure shown. Read-outs that look alike come from different tables or passages of the source.
What was measured:
Type in all cases: cell-based
[1] = system: Saccharomyces cerevisiae cells; assay: antifungal activity: inhibition of growth of Saccharomyces cerevisiae in liquid standard medium
Experimental: IC50 means the concentration of the substance causing 50% inhibitio
of the growth of Saccharomyces cerevisiae cells in liquid standard medium
determined spectrophotometrically at λ = 600 nm after 24 hours

[2] = haemolytic activity (hemoglobin, determined spectrophotometrically)
Text: (§1) EH50 means the concentration of the substance causing in conditions
(§2) 50% of hemoglobin determined spectrophotometrically at λ = 550 nm.

hemoglobin = assay: as above
Text: as §1, §2

[3] = in vitro haemolysis, 50% of hemoglobin, λ = 550 nm, read-out: EH50 (the source's name)
[4] = 50% inhibition of growth of Saccharomyces cerevisiae, liquid standard medium, λ = 600 nm, 24 hours, 28° C., read-out: IC50
[5] = 50% inhibition of growth of Saccharomyces cerevisiae, liquid standard medium, λ = 600 nm, 24 hours, 28° C.
[6] = in vitro haemolysis, 50% of hemoglobin, λ = 550 nm

Compound	IC50 [1, 5] [µg/mL]	EH50 (hemoglobin; [6]) [µg/mL]	further results
C[C@@H]1[C@H](O)[C@@H](C)/C=C/C=C/C=C/C=C/C=C/C=C/C=C/[C@H](O[C@@H]2O[C@H](C)[C@@H](O)[C@H](N)[C@@H]2O)C[C@@H]2O[C@](O)(C[C@@H](O)C[C@@H](O)[C@H](O)CC[C@@H](O)C[C@@H](O)CC(=O)O[C@H]1C)C[C@H](O)[C@H]2C(=O)O [Amphotericin B, amphotericin B]			IC50 ([1]; Saccharomyces cerevisiae, 24 h): 0.03 µg/mL (≈ 0.0325 µM); HC50 [2, 3]: 5 µg/mL
COc1cc2c(c3oc(-c4ccccc4)cc(=O)c13)C=CC(C)(C)O2 [Candidin, candidin]			IC50 [1, 4]: 0.054 µg/mL (≈ 0.161 µM); HC50 [2, 3]: 20 µg/mL
COC(=O)[C@H]1[C@@H]2C[C@@H](O[C@@H]3O[C@H](C)[C@@H](O)[C@H]([N+](C)(C)C)[C@@H]3O)/C=C/C=C/C=C/C=C/C=C/C=C/C=C/[C@H](C)[C@@H](O)[C@@H](C)[C@H](C)OC(=O)C[C@H](O)C[C@H](O)CC[C@@H](O)[C@H](O)C[C@H](O)C[C@](O)(C[C@@H]1O)O2 [DMS-Amphotericin B, N,N,N-trimethylamphotericin B methyl ester]			IC50 [1, 4]: 0.08 µg/mL; HC50 [2, 3]: 5 µg/mL
C[C@@H]1[C@H](O)[C@@H](C)/C=C/C=C/C=C/C=C/C=C/C=C/C=C/[C@H](O[C@@H]2O[C@H](C)[C@@H](O)[C@H](N)[C@@H]2O)C[C@@H]2O[C@](O)(C[C@@H](O)[C@H](O)CC[C@@H](O)CC(=O)C[C@@H](O)CC(=O)O[C@H]1C)C[C@H](O)[C@H]2C(=O)O [Mycoheptin, mycoheptin]	0.05 (≈ 0.0542 µM)	15	
C[C@@H]1[C@H](O)[C@@H](C)/C=C/C=C/CC/C=C/C=C/C=C/C=C/C(O[C@H]2O[C@H](C)[C@@H](O)[C@H](N)[C@@H]2O)CC2O[C@](O)(CC(O)C(O)CCC(O)CC(O)CC(O)CC(=O)O[C@H]1C)CC(O)C2C(=O)O (stereo partly drawn) [Nystatin, nystatin]	0.1 (≈ 0.108 µM)	50	
C[C@@H]1C/C=C/C=C/C=C/C=C/[C@H](O[C@@H]2O[C@H](C)[C@@H](O)[C@H](N)[C@@H]2O)C[C@@H]2O[C@](O)(C[C@@H](O)C[C@H]3O[C@@H]3/C=C/C(=O)O1)C[C@H](O)[C@H]2C(=O)O [Pimaricin, pimaricin]			IC50 [1, 4]: 1 µg/mL (≈ 1.5 µM); HC50 [2]: 100 µg/mL
CCC[C@@H]1C/C=C/C=C/C=C/C=C/[C@H](O[C@@H]2O[C@H](C)[C@@H](O)[C@H](N)[C@@H]2O)C[C@@H]2O[C@](O)(C[C@@H](O)CCCC(=O)C[C@@H](O)[C@H](CC)C(=O)O1)C[C@H](O)[C@H]2C(=O)O [Rimocidin, rimocidin]	1.5 (≈ 1.95 µM)	30	
N,N,N-dimethyl-mycoheptin methyl ester [DMS-Mycoheptin]	0.2	65	
N,N,N-trimethylcandidin methyl ester [DMS-Candidin]	0.15	70	
N,N,N-trimethylnystatin methyl ester [DMS-Nystatin]	0.25	100	
N,N,N-trimethylpolifungin methyl ester [DMS-Polifungin]	0.15		EH50 (hemoglobin): 120 µg/mL
N,N,N-trimethylrimocidin methyl ester [DMS-Rimocidin]	2.5	50	
aureofacin	0.005	0.35	
candicidin	0.005	2.5	
levorin	0.007	2.5	
perimycin	0.002	5	
polyfungin [Polifungin]	0.08		EH50 (hemoglobin): 20 µg/mL
trichomycin	0.005	3	

Reference: US4294958A, “Water-soluble salts of trimethylammonium derivatives of polyene macrolide antibiotics and the preparation thereof” (Politechnika Gdanska, priority 1978, dated 1981)
